# In ChEMBL document CHEMBL1157187, “Chemical synthesis of 2beta-amino-5alpha-androstane-3alpha,17beta-diol N-derivatives and their antiproliferative effect on HL-60 human leukemia cells” (Bioorg Med Chem, 2008):
# Legend:
# [1] = tested on: HL-60; assay: Growth inhibition of human HL60 cells at 1 uM after 3 days; assay type: functional; conditions: HL-60, 72 h
# [2] = tested on: HL-60; assay: Growth inhibition of human HL60 cells at 10 uM after 3 days; assay type: functional; conditions: HL-60, 72 h
Structure (SMILES),inhibition at 1 µM [1] [%],inhibition at 10 µM [2] [%]
CCCCN1CCN([C@H]2C[C@@]3(C)[C@@H](CC[C@@H]4[C@@H]3CC[C@]3(C)[C@@H](O)CC[C@@H]43)C[C@@H]2O)CC1,0,7.6
C[C@]12C[C@H](N3CCN(c4ccc([N+](=O)[O-])cc4)CC3)[C@@H](O)C[C@@H]1CC[C@@H]1[C@@H]2CC[C@]2(C)[C@@H](O)CC[C@@H]12,12.5,92.2
C[C@]12C[C@H](N3CCOCC3)[C@@H](O)C[C@@H]1CC[C@@H]1[C@@H]2CC[C@]2(C)[C@@H](O)CC[C@@H]12,14.9,8.7
CCCCCN[C@H]1C[C@@]2(C)[C@@H](CC[C@@H]3[C@@H]2CC[C@]2(C)[C@@H](O)CC[C@@H]32)C[C@@H]1O,0,0
C[C@]12C[C@H](N3CCCCC3)[C@@H](O)C[C@@H]1CC[C@@H]1[C@@H]2CC[C@]2(C)[C@@H](O)CC[C@@H]12,0,1.5
CCCCCCCCCCCCN[C@H]1C[C@@]2(C)[C@@H](CC[C@@H]3[C@@H]2CC[C@]2(C)[C@@H](O)CC[C@@H]32)C[C@@H]1O,0,92
C[C@]12C[C@H](C3NCCc4ccccc43)[C@@H](O)C[C@@H]1CC[C@@H]1[C@@H]2CC[C@]2(C)[C@@H](O)CC[C@@H]12 (some centres not stated),3.4,29.6
CC(C)N[C@H]1C[C@@]2(C)[C@@H](CC[C@@H]3[C@@H]2CC[C@]2(C)[C@@H](O)CC[C@@H]32)C[C@@H]1O,0,0
CCCN1CCN([C@H]2C[C@@]3(C)[C@@H](CC[C@@H]4[C@@H]3CC[C@]3(C)[C@@H](O)CC[C@@H]43)C[C@@H]2O)CC1,0,0
CCN(CC)[C@H]1C[C@@]2(C)[C@@H](CC[C@@H]3[C@@H]2CC[C@]2(C)[C@@H](O)CC[C@@H]32)C[C@@H]1O,0,6.7
C[C@]12C[C@H](N3CCN(c4ccccc4)CC3)[C@@H](O)C[C@@H]1CC[C@@H]1[C@@H]2CC[C@]2(C)[C@@H](O)CC[C@@H]12,7,36.6
CC(=O)N1CCN([C@H]2C[C@@]3(C)[C@@H](CC[C@@H]4[C@@H]3CC[C@]3(C)[C@@H](O)CC[C@@H]43)C[C@@H]2O)CC1,0,0
C[C@]12C[C@H](n3cccn3)[C@@H](O)C[C@@H]1CC[C@@H]1[C@@H]2CC[C@]2(C)[C@@H](O)CC[C@@H]12,8.4,12.8
C[C@]12C[C@H](NCCCc3ccccc3)[C@@H](O)C[C@@H]1CC[C@@H]1[C@@H]2CC[C@]2(C)[C@@H](O)CC[C@@H]12,0.9,37.6
CC(C)CCN[C@H]1C[C@@]2(C)[C@@H](CC[C@@H]3[C@@H]2CC[C@]2(C)[C@@H](O)CC[C@@H]32)C[C@@H]1O,0,3
CCCC(C)N1CCN([C@H]2C[C@@]3(C)[C@@H](CC[C@@H]4[C@@H]3CC[C@]3(C)[C@@H](O)CC[C@@H]43)C[C@@H]2O)CC1 (some centres not stated),0,9.2
CCCCCCCCCCCCCCCCN[C@H]1C[C@@]2(C)[C@@H](CC[C@@H]3[C@@H]2CC[C@]2(C)[C@@H](O)CC[C@@H]32)C[C@@H]1O,0,94.8
CC(C)CN1CCN([C@H]2C[C@@]3(C)[C@@H](CC[C@@H]4[C@@H]3CC[C@]3(C)[C@@H](O)CC[C@@H]43)C[C@@H]2O)CC1,0,5
C[C@]12C[C@H](N3CCN(c4ccc(F)cc4)CC3)[C@@H](O)C[C@@H]1CC[C@@H]1[C@@H]2CC[C@]2(C)[C@@H](O)CC[C@@H]12,0,10.1
CCOCCCN[C@H]1C[C@@]2(C)[C@@H](CC[C@@H]3[C@@H]2CC[C@]2(C)[C@@H](O)CC[C@@H]32)C[C@@H]1O,0,10.8
CCCCN[C@H]1C[C@@]2(C)[C@@H](CC[C@@H]3[C@@H]2CC[C@]2(C)[C@@H](O)CC[C@@H]32)C[C@@H]1O,0,3.1
C[C@]12C[C@H](N3CCN(Cc4ccc5c(c4)OCO5)CC3)[C@@H](O)C[C@@H]1CC[C@@H]1[C@@H]2CC[C@]2(C)[C@@H](O)CC[C@@H]12,0,26.1
CC(C)(C)CN[C@H]1C[C@@]2(C)[C@@H](CC[C@@H]3[C@@H]2CC[C@]2(C)[C@@H](O)CC[C@@H]32)C[C@@H]1O,0,3.3

Structure (SMILES),inhibition at 1 µM [1] [%],inhibition at 10 µM [2] [%]
CCCCCCCCCCN[C@H]1C[C@@]2(C)[C@@H](CC[C@@H]3[C@@H]2CC[C@]2(C)[C@@H](O)CC[C@@H]32)C[C@@H]1O,0,96.9
C[C@]12C[C@H](N3CCN(C(=O)C4CCCCC4)CC3)[C@@H](O)C[C@@H]1CC[C@@H]1[C@@H]2CC[C@]2(C)[C@@H](O)CC[C@@H]12,0,3.9
C[C@]12C[C@H](N3CCN(Cc4ccccc4)CC3)[C@@H](O)C[C@@H]1CC[C@@H]1[C@@H]2CC[C@]2(C)[C@@H](O)CC[C@@H]12,0,25.7
CCN1CCN([C@H]2C[C@@]3(C)[C@@H](CC[C@@H]4[C@@H]3CC[C@]3(C)[C@@H](O)CC[C@@H]43)C[C@@H]2O)CC1,0,4.8
C[C@]12C[C@H](N3CCC(N4CCCCC4)CC3)[C@@H](O)C[C@@H]1CC[C@@H]1[C@@H]2CC[C@]2(C)[C@@H](O)CC[C@@H]12,0,77.8
C[C@]12C[C@H](N3CCN(CC4CCCCC4)CC3)[C@@H](O)C[C@@H]1CC[C@@H]1[C@@H]2CC[C@]2(C)[C@@H](O)CC[C@@H]12,0,4
C[C@]12C[C@H](NC3CCCCC3)[C@@H](O)C[C@@H]1CC[C@@H]1[C@@H]2CC[C@]2(C)[C@@H](O)CC[C@@H]12,0,0
CCC(C)(C)N[C@H]1C[C@@]2(C)[C@@H](CC[C@@H]3[C@@H]2CC[C@]2(C)[C@@H](O)CC[C@@H]32)C[C@@H]1O,0,1.8
C[C@]12C[C@H](N3CCCNCC3)[C@@H](O)C[C@@H]1CC[C@@H]1[C@@H]2CC[C@]2(C)[C@@H](O)CC[C@@H]12,1,21.4
CCCCCCCN[C@H]1C[C@@]2(C)[C@@H](CC[C@@H]3[C@@H]2CC[C@]2(C)[C@@H](O)CC[C@@H]32)C[C@@H]1O,10.1,82.3
C[C@]12C[C@H](NC3CCCC3)[C@@H](O)C[C@@H]1CC[C@@H]1[C@@H]2CC[C@]2(C)[C@@H](O)CC[C@@H]12,0,0
CC(C)CC(=O)N1CCN([C@H]2C[C@@]3(C)[C@@H](CC[C@@H]4[C@@H]3CC[C@]3(C)[C@@H](O)CC[C@@H]43)C[C@@H]2O)CC1,0,5.5
C[C@]12C[C@H](NCC34CC5CC(CC(C5)C3)C4)[C@@H](O)C[C@@H]1CC[C@@H]1[C@@H]2CC[C@]2(C)[C@@H](O)CC[C@@H]12,6.4,85.8
C[C@]12C[C@H](N3CCN(c4ccccn4)CC3)[C@@H](O)C[C@@H]1CC[C@@H]1[C@@H]2CC[C@]2(C)[C@@H](O)CC[C@@H]12,0,26.1
C[C@]12C[C@H](N3CCCC3)[C@@H](O)C[C@@H]1CC[C@@H]1[C@@H]2CC[C@]2(C)[C@@H](O)CC[C@@H]12,0,9.9
CCC(=O)N1CCN([C@H]2C[C@@]3(C)[C@@H](CC[C@@H]4[C@@H]3CC[C@]3(C)[C@@H](O)CC[C@@H]43)C[C@@H]2O)CC1,0,0
C[C@]12C[C@H](N3CCN(CCO)CC3)[C@@H](O)C[C@@H]1CC[C@@H]1[C@@H]2CC[C@]2(C)[C@@H](O)CC[C@@H]12,0.8,17.7
CCCCCCCCCCCN(CCCCCCCCCCC)[C@H]1C[C@@]2(C)[C@@H](CC[C@@H]3[C@@H]2CC[C@]2(C)[C@@H](O)CC[C@@H]32)C[C@@H]1O,11.7,7
CCCN[C@H]1C[C@@]2(C)[C@@H](CC[C@@H]3[C@@H]2CC[C@]2(C)[C@@H](O)CC[C@@H]32)C[C@@H]1O,0,0.4
C[C@]12C[C@H](N3CCN(C(=O)c4ccccc4)CC3)[C@@H](O)C[C@@H]1CC[C@@H]1[C@@H]2CC[C@]2(C)[C@@H](O)CC[C@@H]12,0,11.4
CCCCCCCCCCCN[C@H]1C[C@@]2(C)[C@@H](CC[C@@H]3[C@@H]2CC[C@]2(C)[C@@H](O)CC[C@@H]32)C[C@@H]1O,0,96.3
C[C@]12C[C@H](N3CCC(Cc4ccccc4)CC3)[C@@H](O)C[C@@H]1CC[C@@H]1[C@@H]2CC[C@]2(C)[C@@H](O)CC[C@@H]12,9.9,57.9
CC(C)(C)N[C@H]1C[C@@]2(C)[C@@H](CC[C@@H]3[C@@H]2CC[C@]2(C)[C@@H](O)CC[C@@H]32)C[C@@H]1O,0,0.5
